{
  "source": "ChEMBL document CHEMBL2073923",
  "about": "“Reversal of anticancer drug resistance by macrolide antibiotics in vitro and in vivo” (Clin Exp Pharmacol Physiol, 2000)",
  "assay_type_in_all_cases": "functional, cell-based",
  "key": {"[1]": {"molecular_target": "T1, ATP-dependent translocase ABCB1 (Mus musculus, UniProt P21447)", "T1 sequence (P21447 whole entry)": "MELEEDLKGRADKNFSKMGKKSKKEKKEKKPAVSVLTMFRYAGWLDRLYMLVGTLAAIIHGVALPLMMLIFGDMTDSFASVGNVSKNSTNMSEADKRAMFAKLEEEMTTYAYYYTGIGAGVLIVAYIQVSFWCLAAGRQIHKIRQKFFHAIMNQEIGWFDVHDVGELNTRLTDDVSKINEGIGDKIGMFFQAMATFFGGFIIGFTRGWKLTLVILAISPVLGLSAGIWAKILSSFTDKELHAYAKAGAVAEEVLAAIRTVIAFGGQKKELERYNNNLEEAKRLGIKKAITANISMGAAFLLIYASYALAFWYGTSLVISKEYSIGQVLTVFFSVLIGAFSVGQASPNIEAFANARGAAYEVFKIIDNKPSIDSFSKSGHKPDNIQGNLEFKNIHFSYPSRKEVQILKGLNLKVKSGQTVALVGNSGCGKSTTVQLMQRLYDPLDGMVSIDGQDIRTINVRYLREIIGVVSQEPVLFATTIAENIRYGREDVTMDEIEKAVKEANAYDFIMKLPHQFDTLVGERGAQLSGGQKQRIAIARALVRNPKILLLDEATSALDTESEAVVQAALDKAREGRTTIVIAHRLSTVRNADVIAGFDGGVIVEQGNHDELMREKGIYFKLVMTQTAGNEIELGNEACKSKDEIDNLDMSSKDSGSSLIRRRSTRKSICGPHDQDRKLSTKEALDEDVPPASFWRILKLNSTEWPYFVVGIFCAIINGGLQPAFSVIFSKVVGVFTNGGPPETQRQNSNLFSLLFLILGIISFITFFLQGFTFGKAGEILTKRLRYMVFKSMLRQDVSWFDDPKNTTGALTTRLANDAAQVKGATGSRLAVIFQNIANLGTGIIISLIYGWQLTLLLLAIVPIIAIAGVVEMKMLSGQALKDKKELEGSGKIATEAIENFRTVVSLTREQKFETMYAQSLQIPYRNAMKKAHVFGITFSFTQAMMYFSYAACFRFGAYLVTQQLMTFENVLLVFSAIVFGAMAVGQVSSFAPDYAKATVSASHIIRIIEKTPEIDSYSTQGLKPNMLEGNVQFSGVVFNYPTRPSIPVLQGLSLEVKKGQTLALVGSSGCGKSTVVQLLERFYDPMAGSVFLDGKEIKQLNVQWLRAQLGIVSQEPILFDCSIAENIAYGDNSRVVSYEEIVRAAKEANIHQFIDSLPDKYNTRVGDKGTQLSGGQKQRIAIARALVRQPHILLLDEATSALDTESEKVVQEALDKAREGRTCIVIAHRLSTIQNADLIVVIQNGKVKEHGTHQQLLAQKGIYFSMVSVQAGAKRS", "test": "TP_TRANSPORTER: inhibition of Vinblastine efflux (Vinblastine: 0.002 uM, YM17K: 100 uM) in P388/S and P388/ADR cells"}, "[2]": {"molecular_target": "T1, ATP-dependent translocase ABCB1", "test": "TP_TRANSPORTER: inhibition of Cyclosporin A efflux (CsA: 0.005 uM, YM17K: 100 uM) in P388/S and P388/ADR cells"}, "[3]": {"molecular_target": "T1, ATP-dependent translocase ABCB1", "test": "TP_TRANSPORTER: inhibition of Vinblastine efflux (Vinblastine: 0.002 uM, Clarithromycin: 100 uM) in P388/S and P388/ADR cells"}, "[4]": {"molecular_target": "T1, ATP-dependent translocase ABCB1", "test": "TP_TRANSPORTER: inhibition of Cyclosporin A efflux (CsA: 0.005 uM, Clarithromycin: 100 uM) in P388/S and P388/ADR cells"}, "[5]": {"molecular_target": "T1, ATP-dependent translocase ABCB1", "test": "TP_TRANSPORTER: inhibition of Cyclosporin A efflux (CsA: 0.005 uM, Josamycin: 100 uM) in P388/S and P388/ADR cells"}, "[6]": {"molecular_target": "T1, ATP-dependent translocase ABCB1", "test": "TP_TRANSPORTER: inhibition of Vinblastine efflux (Vinblastine: 0.002 uM, Josamycin: 100 uM) in P388/S and P388/ADR cells"}, "[7]": {"molecular_target": "T1, ATP-dependent translocase ABCB1", "test": "TP_TRANSPORTER: inhibition of Vinblastine efflux (Vinblastine: 0.002 uM, FK-506: 10 uM) in P388/S and P388/ADR cells"}, "[8]": {"molecular_target": "T1, ATP-dependent translocase ABCB1", "test": "TP_TRANSPORTER: intracellular accumulation in P388/S and P388/ADR cells"}},
  "data": [
    {"smiles": "CC[C@H]1OC(=O)CC[C@H](C)C(O[C@@H]2O[C@H](C)C[C@H](N(C)C)[C@H]2O)[C@@H](CC=O)C[C@@H](C)C(=O)/C=C/C(C)=C/[C@@H]1CO", "note": "(stereo partly drawn)", "values": [
      {"measurement": "Activity", "setting": "[1]", "value": "inhibitor [(at a rough estimate) 200 % of control]"},
      {"measurement": "Activity", "setting": "[2]", "value": "inhibitor [(at a rough estimate) 710 % of control]"}
    ]},
    {"smiles": "CC[C@H]1OC(=O)[C@H](C)[C@@H](O[C@H]2C[C@@](C)(OC)[C@@H](O)[C@H](C)O2)[C@H](C)[C@@H](O[C@@H]2O[C@H](C)C[C@H](N(C)C)[C@H]2O)[C@](C)(OC)C[C@@H](C)C(=O)[C@H](C)[C@@H](O)[C@]1(C)O", "note": "[CLARITHROMYCIN]", "values": [
      {"measurement": "Activity", "setting": "[3]", "value": "inhibitor [(at a rough estimate) 250 % of control]"},
      {"measurement": "Activity", "setting": "[4]", "value": "inhibitor [(at a rough estimate) 820 % of control]"}
    ]},
    {"smiles": "CO[C@@H]1[C@@H](O[C@@H]2O[C@H](C)[C@@H](O[C@H]3C[C@@](C)(O)[C@@H](OC(=O)CC(C)C)[C@H](C)O3)[C@H](N(C)C)[C@H]2O)[C@@H](CC=O)C[C@@H](C)[C@@H](O)/C=C/C=C/C[C@@H](C)OC(=O)C[C@H]1OC(C)=O", "note": "[JOSAMYCIN]", "values": [
      {"measurement": "Activity", "setting": "[5]", "value": "inhibitor [(at a rough estimate) 710 % of control]"},
      {"measurement": "Activity", "setting": "[6]", "value": "inhibitor [(at a rough estimate) 180 % of control]"}
    ]},
    {"smiles": "C=CC[C@@H]1/C=C(\\C)C[C@H](C)C[C@H](OC)[C@H]2O[C@@](O)(C(=O)C(=O)N3CCCC[C@H]3C(=O)O[C@H](/C(C)=C/[C@@H]3CC[C@@H](O)[C@H](OC)C3)[C@H](C)[C@@H](O)CC1=O)[C@H](C)C[C@@H]2OC", "note": "[TACROLIMUS ANHYDROUS]", "values": [
      {"measurement": "Activity", "setting": "[7]", "value": "inhibitor [(at a rough estimate) 230 % of control]"}
    ]},
    {"smiles": "CC[C@]1(O)C[C@@H]2CN(CCc3c([nH]c4ccccc34)[C@@](C(=O)OC)(c3cc4c(cc3OC)N(C)[C@H]3[C@@](O)(C(=O)OC)[C@H](OC(C)=O)[C@]5(CC)C=CCN6CC[C@]43[C@@H]65)C2)C1", "note": "[VINBLASTINE]", "values": [
      {"measurement": "Activity", "setting": "[8]", "value": "substrate [+]"}
    ]}
  ]
}
